Data: BindingDB's records for doi:10.7270/Q2XS5SSN (Nmmlsc, 2010)

Molecular target: T1, GTPase KRas [1-37] (Homo sapiens, UniProt G3V5T7)
T1 construct: 1-37
Experiment: inhibitors of GTP binding to wildtype Ras, dose response, biochemical, multiplex bead flow cytometry (AID 1335)

T1 sequence (G3V5T7 whole entry): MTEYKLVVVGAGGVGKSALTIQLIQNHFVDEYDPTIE

EC50 [µM] | SMILES
43.7 | Cc1ccc(-n2c(=O)cc(N3CCc4ccccc4C3)[nH]c2=O)cc1
3.66 | Cc1cc(C(=O)Oc2ccccc2C(=O)O)c(C)o1 [2-(2,5-dimethyl-3-furoyl)oxybenzoic acid]
0.109 | O=C(O)c1ccccc1OCc1ccccc1Br [2-(2-bromobenzyl)oxybenzoic acid]
0.0993 | CC1(C)Cc2c(sc(NC(=S)NC(=O)c3ccccc3)c2C(=O)O)CO1 [2-(benzoylcarbamothioylamino)-5,5-dimethyl-4,7-dihydrothieno[2,3-c]pyran-3-carboxylic acid]
7.96 | CCn1cc(C=C2C(=O)c3ccccc3C2=O)c2ccccc21 [2-[(1-ethyl-3-indolyl)methylidene]indene-1,3-dione]
8.92 | Cc1cc(NC(=O)CSc2nc(O)c(C#N)c(-c3ccccc3)n2)no1 [2-[(5-cyano-4-oxidanylidene-6-phenyl-1H-pyrimidin-2-yl)sulfanyl]-N-(5-methyl-1,2-oxazol-3-yl)ethanamide]
0.0782 | Cc1cc(C(=O)O)sc1CNCc1ccccc1Cl [5-[[(2-chlorobenzyl)amino]methyl]-4-methyl-2-thenoic acid]
4.03 | O=C(O)/C=C/c1cn(Cc2ccccc2)nc1-c1cccs1 [(E)-3-(1-benzyl-3-thiophen-2-ylpyrazol-4-yl)prop-2-enoic acid]
2.61 | CCS(=O)(=O)N1N=C(c2cccc(NS(C)(=O)=O)c2)CC1c1ccc(C)cc1 (stereo not given) [MLS000680398]

SMILES | EC50 [µM]
CCN1C(c2ccccc2)=C(c2ccccc2)S/C1=C/C=C1\SC(=S)N(C)C1=O [(5Z)-5-[(2E)-2-(3-ethyl-4,5-diphenyl-1,3-thiazol-2-ylidene)ethylidene]-3-methyl-2-sulfanylidene-1,3-thiazolidin-4-one] | 33.6
